From patent US10722520B2, “Heterocyclic compounds and their use in preventing or treating bacterial infections” (MUTABILIS, priority 2016, dated 2020)
pIC50: −log10 of the molar value.

Tests used:
KPC-2 = KPC-2 (Klebsiella pneumoniae, UniProt Q9F663)
AmpC (P99) = AmpC (P99) (Enterobacter cloacae, UniProt P05364); assay: biochemical
OXA-1 = OXA-1 (Escherichia coli, UniProt P13661)
AmpC (PAE) = AmpC (PAE) (Pseudomonas aeruginosa, UniProt P24735); assay: biochemical
SHV-1 = SHV-1 (Klebsiella pneumoniae, UniProt P0AD64)
TEM-1 = TEM-1 (Escherichia coli, UniProt P62593)
CTX-M-15 = CTX-M-15 (Escherichia coli, UniProt Q9EXV5)
OXA-48 = OXA-48 (Klebsiella pneumoniae, UniProt Q6XEC0)
OXA-11 = OXA-11 (Pseudomonas aeruginosa, UniProt Q06778)
OXA-15 = OXA-15 (Pseudomonas aeruginosa, UniProt Q51574); assay: biochemical
K. pneumoniae 6299 = assay: MIC of compound alone, broth microdilution; format: cell-based; conditions: Klebsiella pneumoniae; strain 6299; compound alone; read-out: MIC compounds of the invention alone
Procedure: (§1) Log phase bacterial suspensions were adjusted to a final density of 5×10^5 cfu/mL in cation-adjusted Mueller-Hinton broth (Becton-Dickinson) and added to each well (98 μL). Microplates were incubated for 16-20 h at 35° C. in ambient air. The MIC of the compounds was defined as the lowest concentration of said compounds that prevented bacterial growth as read by visual inspection.

P. aeruginosa CIP107051 = assay: MIC of compound alone, broth microdilution; format: cell-based; conditions: Pseudomonas aeruginosa; strain CIP107051; compound alone; read-out: MIC compounds of the invention alone
Procedure: as §1

E. cloacae P99 = assay: MIC of compound alone, broth microdilution; format: cell-based; conditions: Enterobacter cloacae; strain P99; compound alone; read-out: MIC compounds of the invention alone
Procedure: as §1

E. coli 190317 = assay: MIC of compound alone, broth microdilution; format: cell-based; conditions: Escherichia coli; strain 190317; compound alone; read-out: MIC compounds of the invention alone
Procedure: as §1

K. pneumoniae BAA-1898 = assay: MIC of compound alone, broth microdilution; format: cell-based; conditions: Klebsiella pneumoniae, BAA1898; strain BAA-1898; compound alone; read-out: MIC compounds of the invention alone
Procedure: as §1

CMY-37 = CMY-37 (Citrobacter freundii, UniProt P05193); conditions: read-out: IC50 β-lactamase CMY-37

SMILES	pIC50 (KPC-2)	pIC50 (AmpC (P99))	pIC50 (OXA-1)	pIC50 (AmpC (PAE))	pIC50 (SHV-1)	pIC50 (TEM-1)	pIC50 (CTX-M-15)	pIC50 (OXA-48)	pIC50 (OXA-11)	pIC50 (OXA-15)	MIC (K. pneumoniae 6299)	MIC (P. aeruginosa CIP107051)	MIC (E. cloacae P99)	MIC (E. coli 190317)	MIC (K. pneumoniae BAA-1898)	pIC50 (CMY-37)
O=C1N2CC(n3ccc(CO)n3)=CC(C2)N1OS(=O)(=O)O (centres unmarked) [Example 12, triethylammonium [3-[3-(hydroxymethyl)pyrazol-1-yl]-7-oxo-1,6-diazabicyclo[3.2.1]oct-3-en-6-yl]sulfate]	7.59	7.82	6.70	7.28	8.68	9.39	9.28	7.92	7.15	6.72	16 µg/mL	> 32 µg/mL	4 µg/mL	1 µg/mL	8 µg/mL	–
Nc1ncc(C(=O)Nc2ccn(C3=CC4CN(C3)C(=O)N4OS(=O)(=O)[O-])n2)s1.[Na+] (centres unmarked) [Example 13, sodium [3-[3-[(2-aminothiazole-5-carbonyl)amino]pyrazol-1-yl]-7-oxo-1,6-diazabicyclo[3.2.1]oct-3-en-6-yl]sulfate]	8.60	8.59	7.57	8.06	8.49	9.19	9.21	8.72	8.40	7.96	> 32 µg/mL	> 32 µg/mL	> 32 µg/mL	32 µg/mL	> 32 µg/mL	8.96
O=C(c1ccn(C2=CC3CN(C2)C(=O)N3OS(=O)(=O)[O-])n1)N1CCOCC1.[Na+] (centres unmarked) [Example 31, sodium (7-oxo-3-[3-(morpholine-4-carbonyl)pyrazol-1-yl]-1,6-diazabicyclo[3.2.1]oct-3-en-6-yl) sulfate]	7.96	7.82	7.19	6.68	8.36	8.89	9.21	8.52	7.48	7.06	> 32 µg/mL	> 32 µg/mL	> 32 µg/mL	> 32 µg/mL	> 32 µg/mL	–
O=C1N2CC(n3cc(CO)nn3)=CC(C2)N1OS(=O)(=O)O (centres unmarked) [Example 64, sodium [3-[4-(hydroxymethyl)triazol-1-yl]-7-oxo-1,6-diazabicyclo[3.2.1]oct-3-en-6-yl]sulfate]	8.15	–	7.07	–	8.54	9.28	9.00	9.15	7.02	8.06	32 µg/mL	> 32 µg/mL	4 µg/mL	2 µg/mL	8 µg/mL	–
O=C1N2CC(n3ccc([C@H](O)CO)n3)=CC(C2)N1OS(=O)(=O)[O-].[Na+] (stereo partly drawn) [Example 76, sodium [3-[3-[(1S)-1,2-dihydroxyethyl]pyrazol-1-yl]-7-oxo-1,6-diazabicyclo[3.2.1]oct-3-en-6-yl]sulfate]	7.14	7.54	6.07	6.68	8.14	8.74	8.68	7.30	6.59	6.21	> 32 µg/mL	> 32 µg/mL	32 µg/mL	8 µg/mL	> 32 µg/mL	–
O=C(Nc1cc[nH]n1)c1ccn(C2=CC3CN(C2)C(=O)N3OS(=O)(=O)[O-])n1.[Na+] (centres unmarked) [Example 85, sodium [7-oxo-3-[3-(pyrazol-3-ylcarbamoyl)pyrazol-1-yl]-1,6-diazabicyclo[3.2.1]oct-3-en-6-yl]sulfate]	8.47	7.96	7.66	6.89	8.80	9.46	9.23	8.77	8.12	7.80	> 32 µg/mL	> 32 µg/mL	> 32 µg/mL	32 µg/mL	> 32 µg/mL	–
